Test results published in patent publication US20240165135A1, “COMPOSITIONS AND METHODS FOR THE TREATMENT OF CANCER” (The State of Israel, Ministry of Agriculture & Rural …, priority 2021, published 2024).

How the values were obtained:
Format in all cases: cell-based, Human
A172 cells [1] = experiment: Apoptosis assay, Annexin V-FITC and PI, FACS, A172; settings: 48 hours, F4-SM 10 μg/mL, F5-SM 10 μg/mL, Doxo 0.5 μg/mL
Procedure: Apoptosis assay—Apoptosis for the A172 cell line was assessed using MEBCYTO Apoptosis Kit with Annexin V-FITC and PI (MBL, Enco, 4700). Staining was carried out according to manufacturer's instructions. In brief, cells were seeded in a 6-well TC plate, at a density of 4×10^5 cells in 2 mL of SFM per well. 24 hours following seeding, cells were treated with the indicated treatments in complete medium for 48 hours. Following incubation, cells were harvested using trypsin and centrifuged for 5 minutes at 1600 rpm. Cell pellets were resuspended and washed twice with 1 mL of PBS. The cells in each sample were resuspended in 85 μL of Annexin binding buffer. Cells were stained using 10 μL of Annexin V-FITC solution and 5 μL of propidium iodide (PI) working solution followed by incubation in the dark at room temperature for 15 minutes. Then 400 μL of Annexin V binding buffer was added to each tube and flow cytometry was performed using a Gallios flow cytometer (FACS). Cells were considered apoptotic if they were Annexin V+/PI− (early apoptosis) or Annexin V+/PI+ (late apoptosis). Live cells were defined as Annexin V−/PI−, and Annexin V−/PI+ as necrosis.

A172 cells [2] = experiment: Cell cycle analysis, PI staining, FACS, A172; settings: 24 hours; SM 10 μg/mL, Doxo 0.5 μg/mL; control 10.2%
Procedure: Cell cycle analysis—A172 cells were seeded in 6-well TC plate at a concentration of 4×10^5 cells in 2 mL of SFM per well. Following 24 hours incubation, cells were treated with indicated treatments in complete medium for 24 hours. Methanol and doxorubicin were used as negative and positive controls, respectively. Cells were harvested and centrifuged for 5 minutes at 1600 rpm. Cell pellets were washed once with 1 mL of PBS and fixed with 70% cold ethanol overnight at −20° C. The fixed cells were washed twice with 1 mL of PBS and stained with 250 μL of PI solution (50 μg/mL) containing RNase A (100 μg/mL) for 30 minutes in dark conditions. 250 μL PBS was added to each tube and the cells were analyzed using FACS.

A172 cells [3] = experiment: Scratch-wound assay, A172 cell migration; settings: 36 hours; F4 20, F4-SM 11.5, F5 20, F5-SM 11.5, Doxo 0.5 μg/mL
Procedure: Scratch-wound assay—A172 cells were seeded in a 96-well plate at a density of 2×10^4 per well in 100 μL of complete medium. Following 24 hours, cells in each well were scratched perpendicularly across the center of the well with a 200 μL pipette tip to produce a cell-free area for investigating the ability of the cells to migrate and close the gap under different treatments. Immediately following scratching, 100 μL of treatment solution was added. Photos were taken by a CARL ZEISS inverted microscope coupled with a camera at 0, 14, 20, and 36 hours following scratching, and the gap area was measured using ImageJ (version 1.53a). The scratch area, indicated by cells migrated into the scratch was calculated as percent of scratch area at time x from time 0: […]

A172 cells [4] = experiment: F-actin staining, confocal imaging of A172 cytoskeleton; settings: 24 hours; F4 12 μg/mL, F5 10 μg/mL, Doxo 0.5 μg/mL
Procedure: Cell staining—EasyProbes™ ActinRed 555 Stain was used for F-actin staining and Hoechst 33342 (ABP Biosciences, USA) for nuclei staining, according to the manufacturer's instructions. Briefly, cells were seeded on confocal dishes (D35-20-1.5-N, Cellvis, USA) at a density of 2×10^4 in 500 μL complete medium. Following 24 hours incubation, the indicated treatments at different concentrations were added for additional 24 hours. For the staining process, cells were washed with PBS and fixed with 3.7% formaldehyde solution in PBS and incubated at room temperature for 10 minutes followed by incubation in 0.1% Triton X-100 (T8787; Sigma Aldrich, USA) for 5 minutes, washing with PBS and incubation in 1% BSA (A7284; Sigma Aldrich, USA) solution for 30 minutes. Two drops of EasyProbes™ Actin and of Hoechst were applied to each of the samples for 20 minutes. […] The number of F-actin filaments was quantified as the number of filaments that crosse a line that is drawn electronically across the soma. Percentage of filaments in the different treatments was calculated out of the average number of filaments in the control.

COc1cccc2c1C(=O)c1c(O)c3c(c(O)c1C2=O)C[C@@](O)(C(=O)CO)C[C@@H]3O[C@H]1C[C@H](N)[C@H](O)[C@H](C)O1 [Doxorubicin]
necrotic cells (A172 cells [1]; methanol control 3.4%): 23.8%
cell apoptosis (A172 cells [1]; vehicle control 8.0%): 60.6%
percentage of cells in the G2-M phase (A172 cells [2]): 11.6%
inhibition of cell migration in comparison to the vehicle control (A172 cells [3]): 28.8%
F-actin network / structures (A172 cells [4]): less pronounced in comparison to that of F4 or F5
